Experimental data published in US5434186A, “Carboxylic acid leukotriene B4 antagonists” (Hoffmann-La Roche Inc., priority 1993, dated 1995).
Read-outs that look alike come from different tables or passages of the source.

Legend:
[1] = tested on: LTB4 -induced bronchoconstriction; experiment: Guinea Pig Bronchoconstriction In Vivo (LTB4-induced); design: species or system guinea pig (Hartley strain); details: Cavia porcellus, iv, i.v. five minutes prior to LTB4 (1 μg/kg i.v.), read-out: ID50 (mg/kg), i.v., LTB4-induced bronchoconstriction
Procedure: Male guinea pigs (Hartley strain) weighing 300 to 500 g are anesthetized with urethane (2 g/kg) intraperitoneally and a polyethylene cannula is inserted into the jugular vein for drug administration. Tracheal pressure is recorded from a cannula inserted into the trachea and connected to a Gould P23ID pressure transducer. After surgical preparation of the animals, a period of time is allowed for pulmonary functions to stabilize. The test compound is administered intravenously five minutes prior to leukotriene B4 administration according to the following protocol: Animals are paralyzed with succinylcholine (1.2 mg/kg i.v.) and mechanically respirated (Harvard rodent respirator) at 40 breaths/minute and 2.5 cc tidal volume. Propranolol (0.1 mg/kg) is then administered intravenously one minute prior to leukotriene B4 administration. Animals are then challenged with an intermediate constrictory dose of leukotriene B4 (1 μg/kg) delivered intravenously.
The change (cm H2 O) between pre and peak ventilatory pressure readings is averaged for five control and five drug treated animals. The percent inhibition is calculated from the formula:
((Control-Drug Treated)/Control)×100
When representative compounds of formula I of the invention were utilized as the test compounds the following results were obtained: […]

LTB4 Receptor = biological target: T1, LTB4 Receptor (Homo sapiens, UniProt Q15722); experiment: LTB4 Receptor Binding Assay (inhibition of 3H-LTB4 binding, human neutrophils); details: 0.5 nM 3H-LTB4, 45 minutes on ice, isolated human neutrophils
T1 construct: Isolated human neutrophils in Gey's salt solution; endogenous in cells; host or cells: human neutrophils isolated from blood (90-95% neutrophils)
Procedure: Binding assays can be performed in microtiter wells. Isolated human neutrophils in Gey's salt solution are incubated on ice for 45 minutes with 0.5 nM ^3 H-LTB4 in the presence or absence of test compounds. Assays are terminated by adding 12 ml ice cold 50 mM Tris (pH 7.4) followed by rapid filtration under vacuum through GF/C filters. Radioactivity is determined by scintillation counting. Non specific binding is defined as the binding not displaced by 100 fold excess of unlabelled LTB4. Specific binding is defined as the difference between total binding and non-specific binding. Non linear analysis of the binding data is performed using LIGAND (Munson and Rodbard, 1980). Ki (Inhibition Constant) values were determined using the Cheng-Prusoff relationship (Cheng and Prusoff, 1973).
(§1) Human neutrophils are prepared from citrated or heparinized blood. The blood was diluted 1:1 with Hank's balanced salt solution (HBSS) minus calcium and magnesium and underlayed with 10 ml lymphocyte separation medium (Organon Teknika), followed by centrifugation at 500× g for 30 min., at room temperature. Supernatants are removed down to the red blood cell pellet. HBSS minus calcium and magnesium are added to give 25 ml. To this are added 25 ml 6% dextran in 0.85% NaCl. Samples are mixed and allowed to stand 20 min at room temperature. Supernatants are removed and centrifuged at 500× g for 5 min at 4° C. Pellets are resuspended with 20 ml 0.2% saline for 20 sec followed by the addition of 20 ml 1.6% saline. Samples are centrifuged at 500× g for 5 min at 4° C. The lysis is repeated and the cells (90-95% neutrophils) are resuspended at 2× 10^6 cell/ml in GEY's salt solution.

[2] = tested on: LTB4 -induced bronchoconstriction; experiment: Guinea Pig Bronchoconstriction In Vivo (LTB4-induced); design: species or system guinea pig (Hartley strain); details: Cavia porcellus, po, read-out: ID50 (mg/kg), p.o., LTB4-induced bronchoconstriction
[3] = tested on: LTB4 mediated calcium fluxes in human neutrophils; experiment: Calcium Flux Assay (inhibition of LTB4 mediated calcium fluxes in human neutrophils); assay type: cell-based; details: Neutrophil; Fura2 labelled human neutrophils, 2.4 nM LTB4
Procedure: as §1
LTB4 induced changes in intracellular calcium concentration are measured using Fura2 labelled human neutrophils. Cells at a concentration of 2-5×10^6 /ml are labelled with 5 μM Fura2 for 30 minutes in Hank's balanced salt solution without calcium and magnesium. The cells are washed and resuspended at a final concentration of 1-2×10^7 cells/ml in Gey's solution. Calcium fluxes are initiated by the addition of 2.4 nM LTB4. Test compounds at appropriate concentrations are added to the cells just prior to the addition of LTB4. […] Fluorescence measurements are made in a Perkin Elmer model LS-5B spectrofluorimeter at a temperature setting of 37° C. Calcium concentrations are determined using the ratio method (ratio of cell fluorescence to media fluorescence).
When representative compounds of formula I of the invention were tested, the results set forth in Table H and expressed as inhibition of LTB4 mediated calcium fluxes in human neutrophils, were obtained.

T1 sequence (Q15722 whole entry): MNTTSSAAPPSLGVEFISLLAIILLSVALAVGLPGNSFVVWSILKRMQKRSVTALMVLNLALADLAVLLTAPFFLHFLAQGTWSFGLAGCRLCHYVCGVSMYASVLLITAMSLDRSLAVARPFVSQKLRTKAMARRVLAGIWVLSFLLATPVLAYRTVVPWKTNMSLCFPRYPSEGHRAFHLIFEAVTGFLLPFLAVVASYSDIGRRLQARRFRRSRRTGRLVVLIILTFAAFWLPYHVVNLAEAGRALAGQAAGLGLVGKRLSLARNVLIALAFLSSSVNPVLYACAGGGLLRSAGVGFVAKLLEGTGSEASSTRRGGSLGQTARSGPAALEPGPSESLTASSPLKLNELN

Structure (SMILES)	ED50 [1] [mg/kg]	Ki (LTB4 Receptor) [nM]	ED50 [2] [mg/kg]	IC50 [3] [nM]
CCCc1c(OCCCCCCc2ccc(CCCCC(=O)O)cc2CCC(=O)O)ccc2c1OCCC2=O [Example 219, 3-(2-Carboxyethyl)-4-[6-[(3,4-dihydro-4-oxo-8-propyl-2H-1-benzopyran-7-yl)oxy]hexyl]benzenepentanoic Acid]	0.08	1	> 10	
CCCc1c(OCCCCCOc2ccc(CCCCC(=O)O)cc2CCC(=O)O)ccc2c1OCCC2=O [Example 215, 3-(2-Carboxyethyl)-4-[[5-[(3,4-dihydro-4-oxo-8-propyl-2H-1-benzopyran-7-yl)oxy]pentyl]oxy]benzenepentanoic Acid]	0.24	3	4.65	
CCCc1c(OCCCCCCc2cccc(OCCCCCC(=O)O)c2CCC(=O)O)ccc2c1OCCC2=O [Example 157, 2-[(5-Carboxypentyl)oxy]-6-[6-[(3,4-dihydro-4-oxo-8-propyl-2H-1-benzopyran-7-yl)oxy]hexyl]benzenepropanoic Acid]	0.07		0.27	1
CCCc1c(OCCCCCCc2cccc(OCC(=O)O)c2CCC(=O)O)ccc2c1OCCC2=O [Example 152, 2-(Carboxymethoxy)-6-[6-[(3,4-dihydro-4-oxo-8-propyl-2H-1-benzopyran-7-yl)oxy]hexyl]benzenepropanoic Acid]	2	1		3
O=C(O)CCCCCOc1cccc(CCCCCCOc2ccc3c(c2CCCc2ccccc2)OCCC3=O)c1CCC(=O)O [Example 200, 2-[(5-Carboxypentyl)oxy]-6-[6-[[3,4-dihydro-4-oxo-8-(3-phenylpropyl)-2H-1-benzopyran-7-yl]oxy]hexyl]benzenepropanoic Acid]	0.06	1	0.16	
CCCc1c(OCCCCCOc2cc3c(cc2C(C)=O)CCC(C(=O)O)O3)ccc2c1OCCC2=O (racemic) [Example 11, rac-6-Acetyl-7-[5-[(3,4-dihydro-4-oxo-8-propyl-2H-1-benzopyran-7-yl)oxy]pentyloxy]-3,4-dihydro-2H-1-benzopyran-2-carboxylic Acid]				300
CCCc1c(OCCCCCOc2ccc(OCCCCC(=O)O)cc2CCC(=O)O)ccc2c1OCCC2=O [Example 58, 5-(4-Carboxybutoxy)-2-[5-[(3,4-dihydro-4-oxo-8-propyl-2H-1-benzopyran-7-yl)oxy]pentyloxy]benzenepropanoic Acid Hemihydrate]	5.09	4		
CCCc1c(OCCCCCCOc2ccc(C(=O)c3cccc(C(=O)O)c3)cc2CCC(=O)O)ccc2c1OCCC2=O [Example 22, 5-[(3-Carboxyphenyl)carbonyl]-2-[6-[(3,4-dihydro-4-oxo-8-propyl-2H-1-benzopyran-7-yl)oxy]hexyloxy]benzenepropanoic Acid]		3		1
CCCc1c(OCCCCOc2ccc(C(=O)c3cccc(C(=O)O)c3)cc2CCC(=O)O)ccc2c1OCCC2=O [Example 24, 5-[(3-Carboxyphenyl)carbonyl]-2-[4-[(3,4-dihydro-4-oxo-8-propyl-2H-1-benzopyran-7-yl)oxy]butoxy]benzenepropanoic Acid]		15		11
O=C(O)CCc1ccccc1OCCCCCOc1ccc2c(c1Cc1ccccc1)OCCC2=O [Example 73, 2-[5-[[3,4-Dihydro-4-oxo-8-(phenylmethyl)-2H-1-benzopyran-7-yl]oxy]pentyloxy]benzenepropanoic Acid]	0.13	150	> 10	
CCCCCc1c(OCCCCCOc2ccccc2CCC(=O)O)ccc2c1OCCC2=O [Example 118, 2-[5-[(3,4-Dihydro-4-oxo-8-pentyl-2H-1-benzopyran-7-yl)oxy]pentyloxy]benzenepropanoic Acid]	0.18	607	> 10	
CCCc1c(OCCCCCOc2ccc(Cl)cc2CCC(=O)O)ccc2c1OCCC2=O [Example 17, 5-Chloro-2-[5-[(3,4-dihydro-4-oxo-8-propyl-2H-1-benzopyran-7-yl)oxy]pentyloxy]benzenepropanoic Acid]	2.02	36		70
CCCc1c(OCCCCCOc2ccccc2CCCC(=O)O)ccc2c1OCCC2=O [Example 145, 2-[5-[(3,4-Dihydro-4-oxo-8-propyl-2H-1-benzopyran-7-yl)oxy]pentyloxy]benzenebutanoic Acid]	0.56	30	> 10	
O=C(O)CCc1ccccc1OCCCCCOc1ccc2c(c1CCCc1ccccc1)OCCC2=O [Example 195, 2-[[5-[[3,4-Dihydro-4-oxo-8-(3-phenylpropyl)-2H-1-benzopyran-7-yl]oxy]pentyl]oxy]benzenepropanoic Acid]	0.04	95	5.8	
CCCc1c(OCCCCCOc2ccccc2CCCCC(=O)O)ccc2c1OCCC2=O [Example 147, 2-[5-[(3,4-Dihydro-4-oxo-8-propyl-2H-1-benzopyran-7-yl)oxy]pentyloxy]benzenepentanoic Acid]	1.18	200		
CCCc1c(OCCCCCCc2cccc(OCCCCC(=O)N(C)C)c2CCC(=O)N(C)C)ccc2c1OCCC2=O [Example 196, 2-[6-[(3,4-Dihydro-4-oxo-8-propyl-2H-1-benzopyran-7-yl)oxy]hexyl]-6-[[5-(dimethylamino)-5-oxopentyl]oxy]-N,N-dimethylbenzenepropanamide]	0.62	200		
CCCc1c(OCCCCCOc2ccc(CCC(=O)O)cc2CCC(=O)O)ccc2c1OCCC2=O [Example 163, 4-[5-[(3,4-Dihydro-4-oxo-8-propyl-2H-1-benzopyran-7-yl)oxy]pentyloxy]-1,3-benzenedipropanoic Acid]	3.11	3		
CCCc1c(OCCCCCOc2ccccc2OCC(=O)O)ccc2c1OCCC2=O [Example 13, [2-[5-[(3,4-Dihydro-4-oxo-8-propyl-2H-1-benzopyran-7-yl)oxy]pentyloxy]phenoxy]acetic Acid]	1.85	70		
CCCc1c(OCCCCCOc2cccc(CCC(=O)O)c2)ccc2c1OCCC2=O [Example 68, 3-[5-[(3,4-Dihydro-4-oxo-8-propyl-2H-1-benzopyran-7-yl)oxy]pentyloxy]benzenepropanoic Acid]	3.56	60		
CCCc1c(OCCCCCOc2ccc(C(=O)CCC(=O)O)cc2CCC(=O)O)ccc2c1OCCC2=O [Example 89, 3-(2-Carboxyethyl)-4-[5-[(3,4-dihydro-4-oxo-8-propyl-2H-1-benzopyran-7-yl)oxy]pentyloxy]-γ-oxobenzenebutanoic Acid]	4.33	4		
CCCc1c(OCCCCCCc2cccc(OCCCC(C)(C)C(=O)O)c2CCC(=O)O)ccc2c1OCCC2=O [Example 174, 2-[(4-Carboxy-4-methylpentyl)oxy]-6-[6-[(3,4-dihydro-4-oxo-8-propyl-2H-1-benzopyran-7-yl)oxy]hexyl]benzenepropanoic Acid]	0.22	1	1.1	
CCCc1c(OCCCCCCc2ccccc2CCC(=O)O)ccc2c1OCCC2=O [Example 37, 2-[6-[(3,4-Dihydro-4-oxo-8-propyl-2H-1-benzopyran-7-yl)oxy]hexyl]benzenepropanoic Acid]	0.45		> 10	
